Laboratory results taken from US20250042942A1, “PEPTIDE HAVING PHYSIOLOGICAL ACTIVITIES AND USE THEREOF” (CAREGEN CO., LTD., priority 2021, published 2025).
Peptide text beside a SMILES is read from it.

Test system: mouse RAW264.7 cell line
Test: Cytotoxicity, CCK-8 assay
Format: cell-based
Settings: peptide 10, 30, 30, 100, and 150 μg/ml, 3 days, CCK-8, FIG. 10B
Method: The effect of the peptide of the present invention on cell proliferation was confirmed using CCK-8 assay. CCK-8 reagent is reduced by cellular dehydrogenase to produce a colored product, and the proliferation of cells may be confirmed through a difference in absorbance using this.
After removing the medium, CCK-8 solution (Dojindo, CCK-8 kit) was diluted 10 times in the culture medium and treated at 100 μl each. During incubation at 37° C., absorbance at a wavelength of 450 nm was measured using a microplate reader at 30-minute intervals.

Structure (SMILES): CC[C@H](C)[C@H](NC(=O)[C@H](C)NC(=O)[C@@H](N)CC(N)=O)C(=O)N[C@@H](CO)C(=O)N[C@H](C(=O)N[C@@H](CC(C)C)C(=O)N[C@@H](Cc1ccc(O)cc1)C(=O)N[C@@H](Cc1ccccc1)C(=O)N[C@@H](CC(=O)O)C(=O)N[C@@H](CC(=O)O)C(=O)N[C@@H](CO)C(=O)O)C(C)C [SEQ ID NO: 1, NAISVLYFDDS] (H-NAISVLYFDDS-OH)
- toxicity to mouse macrophages: not toxic
